Data reported in patent US20020092037A1, “Use of membrane supports in plant tissue culture processes” (priority 2000, published 2002).

System: P. taeda embryogenic cell lines
Assay: Growth of non-transgenic, transgenic and mixed pine cell cultures on GENETICIN selection medium with support treatments, P. taeda
Type: cell-based, Pinus taeda
Conditions: 15 mg/L in DCR selection medium
Description: Stably transformed pine tissue had been generated using a particle bombardment method and selected for the presence of an inserted antibiotic resistance gene, nptII, on DCR2 gelled medium (Table 5), in this example containing 15 mg/L GENETICIN®, hereinafter referred to as DCR selection medium. Additionally, the presence of an inserted gus gene, encoding a β-glucuronidase enzyme in tissue culture cells, had been detected by deep blue staining of cells from each of the transgenic lines upon exposure to a colorigenic glucuronidase enzyme substrate (commercially available from Inalco, Inc.), according to techniques well known to those skilled in the art of plant transformation, and the presence of both transgenes had been verified by use of the polymerase chain reaction (PCR) using techniques well known to those skilled in the art of molecular biology. The transgenic pine lines containing and expressing both transgenes had then been cryopreserved as described in Example 4 above. […]
Cells, or the supports bearing the cells, were transferred onto fresh selection medium at biweekly intervals, and fresh weight of cells for each plate was recorded at each biweekly transfer, for a total of eight weeks (Table 19). […]

CN[C@@H]1[C@@H](O)[C@@H](O[C@@H]2[C@@H](O)[C@H](O[C@H]3O[C@H]([C@@H](C)O)[C@@H](O)[C@H](O)[C@H]3N)[C@@H](N)C[C@H]2N)OC[C@]1(C)O [GENETICIN®]
selection of non-transformed versus transformed pine tissue: sufficient to kill the non-transformed tissue while allowing growth of the transformed tissue
